# System: HCV 1b genotype
# Assay: HCV replicon assay (HCV-neo replicon cells, wild-type)
# Type: cell-based, Hepatitis C virus
# Details: HCV 1b genotype replicon; class symbol; read-out: EC50 Range against HCV 1b
# In short: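 Inhibition was tested in replicon-bearing cells, both wild-type HCV-neo and lines with NS5A resistance substitutions, using the O'Boyle et al. 2005 replicon method or luciferase-reporter formats.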
row,Structure (SMILES),EC50 [nM]
1,"CC(C)(C)OC(=O)N1CCCC1(C)C(=O)N1CCC[C@H]1C(=O)Nc1ccc(-c2cnc(-c3ccc(NC(=O)[C@@H]4CCCN4C(=O)C4(C)CCCN4C(=O)OC(C)(C)C)cc3)o2)cc1 (stereo partly drawn) [Example D-30, di-tert-butyl 2,2′-(1,3-oxazole-2,5-diylbis(4,1-phenylenecarbamoyl(2S)-2,1-pyrrolidinediylcarbonyl))bis(2-methyl-1-pyrrolidinecarboxylate)]",1000 to 10000

# Same assay, conditions: HCV 1b genotype replicon; class symbols; read-out: EC50 Range against HCV 1b
row,Structure (SMILES),EC50 [nM]
1,"CN(C)C(Cc1ccc(Br)cc1)C(=O)N1CCC[C@H]1C(=O)Nc1ccc(-c2cnc(-c3ccc(NC(=O)[C@@H]4CCCN4C(=O)C(Cc4ccc(Br)cc4)N(C)C)cc3)o2)cc1 (stereo partly drawn) [JR-8, (2S)-N,N′-(4,4′-(oxazole-2,5-diyl)bis(4,1-phenylene))bis(1-(3-(4-bromophenyl)-2-(dimethylamino)propanoyl)pyrrolidine-2-carboxamide)]",4.57 to 99

# Same assay, conditions: Hepatitis C virus, HCV 1b genotype replicon; class symbol; read-out: EC50 Range against HCV 1b
row,Structure (SMILES),EC50 [nM]
1,"CC(C)(C)O[C@@H]1C[C@@H](C(=O)Nc2ccc(-c3cc(-c4ccc(NC(=O)[C@@H]5C[C@@H](OC(C)(C)C)CN5C(=O)OCc5ccccc5)cc4)[nH]n3)cc2)N(C(=O)OCc2ccccc2)C1 [OL-49, dibenzyl (2S,4R,2′S,4′R)-2,2′-(1H-pyrazole-3,5-diylbis(4,1-phenylenecarbamoyl))bis(4-tert-butoxy-1-pyrrolidinecarboxylate)]",100 to 999
2,"CSCC[C@H](NC(=O)Cc1ccccc1)C(=O)Nc1ccc(-c2cnc(-c3ccc(NC(=O)[C@H](CCSC)NC(=O)Cc4ccccc4)cc3)o2)cc1 [JG-13, (2S,2′S)-N,N′-(1,3-oxazole-2,5-diyldi-4,1-phenylene)bis(4-(methylsulfanyl)-2-((phenylacetyl)amino)butanamide)]",100 to 999
3,"O=C(Nc1ccc(-c2nnc(-c3ccc(NC(=O)[C@H]4CCCN4C(=O)c4cccc(F)n4)cc3)o2)cc1)[C@H]1CCCN1C(=O)c1cccc(F)n1 [RK-25, (2R,2′R)-N,N′-(1,3,4-oxadiazole-2,5-diyldi-4,1-phenylene)bis(1-((6-fluoro-2-pyridinyl)carbonyl)-2-pyrrolidinecarboxamide)]",100 to 999
4,"O=C(Nc1ccc(-c2cnc(-c3ccc(NC(=O)[C@@H]4CCCN4C(=O)C(O)c4nccs4)cc3)o2)cc1)[C@@H]1CCCN1C(=O)C(O)c1nccs1 (stereo partly drawn) [Example D-10, (2S,2′S)-N,N′-(1,3-oxazole-2,5-diyldi-4,1-phenylene)bis(1-(hydroxy(1,3-thiazol-2-yl)acetyl)-2-pyrrolidinecarboxamide)]",100 to 999
5,"COc1cccc2c(C(=O)N3CCC[C@H]3C(=O)Nc3ccc(-c4ccc(-c5ccc(NC(=O)[C@@H]6CCCN6C(=O)c6nc(Cl)cc7c(OC)cccc67)cc5)o4)cc3)nc(Cl)cc12 [JG-60, (2S,2′S)-N,N′-(2,5-furandiyldi-4,1-phenylene)bis(1-((3-chloro-5-methoxy-1-isoquinolinyl)carbonyl)-2-pyrrolidinecarboxamide)]",1000 to 10000
6,"O=C(Nc1ccc(-c2cnc(-c3ccc(NC(=O)[C@@H]4CCCN4C(=O)C4CCCCN4Cc4ccccc4)cc3)o2)cc1)[C@@H]1CCCN1C(=O)C1CCCCN1Cc1ccccc1 (stereo partly drawn) [Example D-21, (2S,2′S)-N,N′-(1,3-oxazole-2,5-diyldi-4,1-phenylene)bis(1-((1-benzyl-2-piperidinyl)carbonyl)-2-pyrrolidinecarboxamide)]",1000 to 10000
7,"O=C(Nc1ccc(-c2cc(-c3ccc(NC(=O)[C@@H]4C=CCN4C(=O)C4CCC4)cc3)[nH]n2)cc1)[C@@H]1C=CCN1C(=O)C1CCC1 [OL-38, (2S,2′S)-N,N′-(1H-pyrazole-3,5-diyldi-4,1-phenylene)bis(1-(cyclobutylcarbonyl)-2,5-dihydro-1H-pyrrole-2-carboxamide)]",1000 to 10000
8,"COc1cccc2c(C(=O)N3CCC[C@H]3C(=O)Nc3ccc(-c4cnc(-c5ccc(NC(=O)[C@@H]6CCCN6C(=O)c6nc(Cl)cc7c(OC)cccc67)cc5)o4)cc3)nc(Cl)cc12 [OL-52, (2S,2′S)-N,N′-(1,3-oxazole-2,5-diyldi-4,1-phenylene)bis(1-((3-chloro-5-methoxy-1-isoquinolinyl)carbonyl)-2-pyrrolidinecarboxamide)]",100 to 999
9,"O=C(Nc1ccc(-c2nc[nH]c2-c2ccc(NC(=O)[C@@H]3CCCN3C(=O)[C@@H](O)c3ccccc3)cc2)cc1)[C@@H]1CCCN1C(=O)[C@@H](O)c1ccccc1 [JG-44, (2S,2′S)-N,N′-(1H-imidazole-4,5-diyldi-4,1-phenylene)bis(1-((2S)-2-hydroxy-2-phenylacetyl)-2-pyrrolidinecarboxamide)]",100 to 999
10,"C[C@@](O)(C(=O)N1CCC[C@H]1C(=O)Nc1ccc(-c2nc[nH]c2-c2ccc(NC(=O)[C@@H]3CCCN3C(=O)[C@@](C)(O)c3ccccc3)cc2)cc1)c1ccccc1 [JG-46, (2S,2′S)-N,N′-(1H-imidazole-4,5-diyldi-4,1-phenylene)bis(1-((2S)-2-hydroxy-2-phenylpropanoyl)-2-pyrrolidinecarboxamide)]",< 4.57
11,"Cn1nc(-c2ccc(NC(=O)[C@@H]3CCCN3C(=O)OCc3ccccc3)cc2)cc1-c1ccc(NC(=O)[C@@H]2CCCN2C(=O)OCc2ccccc2)cc1 [FY-3, dibenzyl (2S,2′S)-2,2′-((1-methyl-1H-pyrazole-3,5-diyl)bis(4,1-phenylenecarbamoyl))di(1-pyrrolidinecarboxylate)]",100 to 999
12,"COc1cccc2c(C(=O)N3CCC[C@H]3C(=O)Nc3ccc(-c4ccc(-c5ccc(NC(=O)[C@@H]6CCCN6C(=O)[C@H](O)c6ccccc6)cc5)o4)cc3)nc(Cl)cc12 [JG-64, (2S)-1-((3-chloro-5-methoxy-1-isoquinolinyl)carbonyl)-N-(4-(5-(4-((((2S)-1-((2R)-2-hydroxy-2-phenylacetyl)-2-pyrrolidinyl)carbonyl)amino)phenyl)-2-furyl)phenyl)-2-pyrrolidinecarboxamide]",4.57 to 99
13,"CC(=O)N1CCC[C@H]1C(=O)Nc1ccc(-c2cnc(-c3ccc(NC(=O)[C@@H]4C=CCN4C(=O)Cc4cccs4)cc3)o2)cc1 [Example D-1, (2S)-N-[4-[5-[4-[[[(2S)-1-acetyl-2-pyrrolidinyl]carbonyl]amino]phenyl]-2-oxazolyl]phenyl]-2,5-dihydro-1-(2-thienylacetyl)-1H-pyrrole-2-carboxamide]",1000 to 10000
14,"CSC[C@H](NC(=O)Cc1ccccc1)C(=O)Nc1ccc(-c2cnc(-c3ccc(NC(=O)[C@H](CSC)NC(=O)Cc4ccccc4)cc3)o2)cc1 [JG-14, (2R,2′R)-N,N′-(1,3-oxazole-2,5-diyldi-4,1-phenylene)bis(3-(methylsulfanyl)-2-((phenylacetyl)amino)propanamide)]",100 to 999
15,"COc1cccc2c(C(=O)N3CCC[C@H]3C(=O)Nc3ccc(-c4nc[nH]c4-c4ccc(NC(=O)[C@@H]5CCCN5C(=O)c5nc(Cl)cc6c(OC)cccc56)cc4)cc3)nc(Cl)cc12 [JG-50, (2S,2′S)-N,N′-(1H-imidazole-4,5-diyldi-4,1-phenylene)bis(1-((3-chloro-5-methoxy-1-isoquinolinyl)carbonyl)-2-pyrrolidinecarboxamide)]",100 to 999

# Same assay, conditions: Hepatitis C virus, HCV 1b genotype replicon; class symbols; read-out: EC50 Range against HCV 1b
row,Structure (SMILES),EC50 [nM]
1,"Cc1ccc(C)c(C(=O)N2CCC[C@H]2C(=O)Nc2ccc(-c3cnc(-c4ccc(NC(=O)[C@@H]5CCCN5C(=O)c5cc(C)ccc5C)cc4)o3)cc2)c1 [XY-43, (2S,2′S)-N,N′-(1,3-oxazole-2,5-diyldi-4,1-phenylene)bis(1-(2,5-dimethylbenzoyl)-2-pyrrolidinecarboxamide)]",1000 to 10000
2,"O=C(Nc1ccc(-c2cnc(-c3ccc(NC(=O)[C@@H]4CCCN4C(=O)[C@H]4CCCO4)cc3)o2)cc1)[C@@H]1CCCN1C(=O)[C@H]1CCCO1 [XY-32, (2S,2′S)-N,N′-(1,3-oxazole-2,5-diyldi-4,1-phenylene)bis(1-((2R)-tetrahydro-2-furanylcarbonyl)-2-pyrrolidinecarboxamide)]",4.57 to 99
3,"O=C(Nc1ccc(-c2cnc(-c3ccc(NC(=O)[C@@H]4CCCN4C(=O)CN4C(=O)OC[C@@H]4c4ccccc4)cc3)o2)cc1)[C@@H]1CCCN1C(=O)CN1C(=O)OC[C@@H]1c1ccccc1 [JR-20, (2S,2′S)-N,N′-(2,5-oxazolediyldi-4,1-phenylene)bis[1-[[(4S)-2-oxo-4-phenyl-3-oxazolidinyl]acetyl]-2-pyrrolidinecarboxamide]]",1000 to 10000
4,"O=C(Nc1ccc(-c2cnc(-c3ccc(NC(=O)[C@@H]4C[C@@H](O)CN4C(=O)C4CC4)cc3)o2)cc1)[C@@H]1C[C@@H](O)CN1C(=O)C1CC1 [XY-57, (2S,4R,2′S,4′R)-N,N′-(1,3-oxazole-2,5-diyldi-4,1-phenylene)bis(1-(cyclopropylcarbonyl)-4-hydroxy-2-pyrrolidinecarboxamide)]",1000 to 10000
5,"O=C(Nc1ccc(-c2cnc(-c3ccc(NC(=O)[C@@H]4CCCN4C(=O)Cc4ccc(F)cc4)cc3)o2)cc1)[C@@H]1CCCN1C(=O)Cc1ccc(F)cc1 [XY-22, (2S,2′S)-N,N′-(1,3-oxazole-2,5-diyldi-4,1-phenylene)bis(1-((4-fluorophenyl)acetyl)-2-pyrrolidinecarboxamide)]",< 4.57
6,"CC(=O)N1CCC(C(=O)N2CCC[C@H]2C(=O)Nc2ccc(-c3cnc(-c4ccc(NC(=O)[C@@H]5CCCN5C(=O)C5CCN(C(C)=O)CC5)cc4)o3)cc2)CC1 [XY-23, (2S,2′S)-N,N′-(1,3-oxazole-2,5-diyldi-4,1-phenylene)bis(1-((1-acetyl-4-piperidinyl)carbonyl)-2-pyrrolidinecarboxamide)]",100 to 999
7,"Cc1noc(C)c1C(=O)N1C[C@H](O)C[C@H]1C(=O)Nc1ccc(-c2cnc(-c3ccc(NC(=O)[C@@H]4C[C@@H](O)CN4C(=O)c4c(C)noc4C)cc3)o2)cc1 [XY-53, (2S,4R,2′S,4′R)-N,N′-(1,3-oxazole-2,5-diyldi-4,1-phenylene)bis(1-((3,5-dimethyl-4-isoxazolyl)carbonyl)-4-hydroxy-2-pyrrolidinecarboxamide)]",1000 to 10000
8,"CC(C)(C)O[C@@H]1C[C@@H](C(=O)Nc2ccc(-c3cnc(-c4ccc(NC(=O)[C@@H]5C[C@@H](OC(C)(C)C)CN5C(=O)CC5CC5)cc4)o3)cc2)N(C(=O)CC2CC2)C1 [XY-61, (2S,4R,2′S,4′R)-N,N′-(1,3-oxazole-2,5-diyldi-4,1-phenylene)bis(4-tert-butoxy-1-(cyclopropylacetyl)-2-pyrrolidinecarboxamide)]",100 to 999

# Same assay, conditions: Hepatitis C virus, HCV 1b genotype replicon; read-out: EC50 1b
row,Structure (SMILES),EC50 [nM]
1,"CC(C)(C)O[C@@H]1C[C@@H](C(=O)Nc2ccc(-c3cc(-c4ccc(NC(=O)[C@@H]5C[C@@H](OC(C)(C)C)CN5C(=O)OCc5ccccc5)cc4)[nH]n3)cc2)N(C(=O)OCc2ccccc2)C1 [OL-49, dibenzyl (2S,4R,2′S,4′R)-2,2′-(1H-pyrazole-3,5-diylbis(4,1-phenylenecarbamoyl))bis(4-tert-butoxy-1-pyrrolidinecarboxylate)]",230
2,"O=C(Nc1ccc(-c2cnc(-c3ccc(NC(=O)[C@@H]4CCCN4C(=O)Cc4ccc(F)cc4)cc3)o2)cc1)[C@@H]1CCCN1C(=O)Cc1ccc(F)cc1 [XY-22, (2S,2′S)-N,N′-(1,3-oxazole-2,5-diyldi-4,1-phenylene)bis(1-((4-fluorophenyl)acetyl)-2-pyrrolidinecarboxamide)]",< 4.5
3,"O=C(Nc1ccc(-c2cc(-c3ccc(NC(=O)[C@@H]4C=CCN4C(=O)C4CCC4)cc3)[nH]n2)cc1)[C@@H]1C=CCN1C(=O)C1CCC1 [OL-38, (2S,2′S)-N,N′-(1H-pyrazole-3,5-diyldi-4,1-phenylene)bis(1-(cyclobutylcarbonyl)-2,5-dihydro-1H-pyrrole-2-carboxamide)]",10000
4,"COc1cccc2c(C(=O)N3CCC[C@H]3C(=O)Nc3ccc(-c4cnc(-c5ccc(NC(=O)[C@@H]6CCCN6C(=O)c6nc(Cl)cc7c(OC)cccc67)cc5)o4)cc3)nc(Cl)cc12 [OL-52, (2S,2′S)-N,N′-(1,3-oxazole-2,5-diyldi-4,1-phenylene)bis(1-((3-chloro-5-methoxy-1-isoquinolinyl)carbonyl)-2-pyrrolidinecarboxamide)]",30
5,"Cc1noc(C)c1C(=O)N1C[C@H](O)C[C@H]1C(=O)Nc1ccc(-c2cnc(-c3ccc(NC(=O)[C@@H]4C[C@@H](O)CN4C(=O)c4c(C)noc4C)cc3)o2)cc1 [XY-53, (2S,4R,2′S,4′R)-N,N′-(1,3-oxazole-2,5-diyldi-4,1-phenylene)bis(1-((3,5-dimethyl-4-isoxazolyl)carbonyl)-4-hydroxy-2-pyrrolidinecarboxamide)]",8060
